Laboratory results as given in patent publication US20170267560A1, “TABLETS FOR TREATING AND DISINFECTING WATER” (ERCROS, S.A., priority 2014, published 2017).

Assay: Thermogravimetric analysis of the quantity of additive encapsulated in microporous or mesoporous material
Settings: for % Encapsulated (g additive/g solid total) × 100: encapsulated in silica by impregnation (Example 1)
[1] = MIL-53 MOF, two steps, 60° C., encapsulation time 1 day
[2] = MIL-53 MOF, two steps, 60° C., encapsulation time 2 days
[3] = MIL-53 MOF, two steps, 60° C., encapsulation time 4 days
[4] = MIL-53 MOF, two steps, 60° C., encapsulation time 7 days
[5] = MIL-88 A (Al) MOF, in-situ encapsulation in one single step (Example 4)
[6] = MIL-88 A (Al) MOF, two steps, encapsulation time 3 days

Row | Structure (SMILES) | % Encapsulated (g additive/g dry solid) × 100 [1] [%] | % Encapsulated (g additive/g dry solid) × 100 [2] [%] | % Encapsulated (g additive/g dry solid) × 100 [3] [%] | % Encapsulated (g additive/g dry solid) × 100 [4] [%] | % Encapsulated (g additive/g dry solid) × 100 [5] [%] | % Encapsulated (g additive/g dry solid) × 100 [6] [%] | % Encapsulated (g additive/g solid total) × 100 [%]
1 | CC(C)=CCCC(C)CC(=O)O (stereo not shown) [Citronellic acid, citronellic acid] | 19.2 | 22.5 | 25 | 25.1 | 12.2 | 8.9 | 56.9
2 | CC(C)=CCC/C(C)=C/C(=O)O [Geranic acid, geranic acid] | 17.2 | 33.4 | 35.3 | 44.0 | 13.4 | 10.6 | 55.7
3 | CC(C)=CCC/C(C)=C/CO [Geraniol, geraniol] | 22.1 | 32.0 | 29.1 | 36.7 | 10.9 | 11.3 | 55.0
4 | CCCCN(CCC(=O)OCC)C(C)=O [IR3535, ethyl 3-[acetyl(butyl)amino]propanoate] | 26.0 | 22.1 | 26.1 | 25.2 | 21.7 | 21.0 | 58.7
